From patent US20230293517A1, “ANTAGONIST COMPOUNDS” (AdoRx Therapeutics Limited, priority 2020, published 2023)

Legend:
[1] = biological target: human Adenosine A3 receptor (Homo sapiens (Human), UniProt P0DMS8); test: Adenosine receptor TR-FRET binding assay (A3); conditions: inhibition of binding of 100 nM CA200645, CHO cell membranes
In short: (§1)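 CHO cell membranes carrying terbium-tagged human A1, A2a, A2b or A3 receptors were incubated 2 h at room temperature with compound and CA200645 tracer (A2b 30 nM; others 100 nM). Specific binding from time-resolved FRET ratios, minus 10 μM XAC background; IC50 converted to Ki (Cheng–Prusoff).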

[2] = biological target: human Adenosine A2b receptor (Homo sapiens (Human), UniProt P29275); test: Adenosine receptor TR-FRET binding assay (A2b); conditions: TR-FRET, inhibition of binding of 30 nM CA200645, CHO cell membranes
Chain of human Adenosine A2b receptor (P29275 whole entry): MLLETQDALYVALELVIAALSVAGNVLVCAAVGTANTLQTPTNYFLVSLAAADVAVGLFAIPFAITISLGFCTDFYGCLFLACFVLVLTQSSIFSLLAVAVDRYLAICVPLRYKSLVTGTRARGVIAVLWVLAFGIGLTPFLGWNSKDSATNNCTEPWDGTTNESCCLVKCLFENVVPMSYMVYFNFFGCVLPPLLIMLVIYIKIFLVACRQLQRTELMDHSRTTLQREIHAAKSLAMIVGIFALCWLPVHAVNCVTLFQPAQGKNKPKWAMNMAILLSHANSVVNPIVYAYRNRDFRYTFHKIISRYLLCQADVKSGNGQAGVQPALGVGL
In short: as §1

[3] = biological target: human Adenosine A1 receptor (Homo sapiens (Human), UniProt P30542); test: Adenosine receptor TR-FRET binding assay (A1); conditions: inhibition of binding of 100 nM CA200645, CHO cell membranes
Chain of human Adenosine A1 receptor (P30542 whole entry): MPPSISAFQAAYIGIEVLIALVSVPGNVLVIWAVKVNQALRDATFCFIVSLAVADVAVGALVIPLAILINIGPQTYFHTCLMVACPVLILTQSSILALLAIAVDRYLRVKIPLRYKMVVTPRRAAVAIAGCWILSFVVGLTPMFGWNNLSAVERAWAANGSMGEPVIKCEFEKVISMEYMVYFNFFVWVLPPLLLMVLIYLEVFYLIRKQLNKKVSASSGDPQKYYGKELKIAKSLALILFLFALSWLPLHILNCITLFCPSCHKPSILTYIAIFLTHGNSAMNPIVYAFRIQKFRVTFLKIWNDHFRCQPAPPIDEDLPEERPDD
In short: as §1

[4] = system: CD8+T cells in human whole blood; test: Measurement of pCREB in CD8+T cells in human whole blood; format: cell-based; conditions: 3 μM NECA, rolipram
In short: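 Heparinised human whole blood pre-incubated 20 min at 37 °C with serially diluted A2a antagonists plus rolipram, then stimulated 60 min with 3 μM NECA (final). After fixation and red-cell lysis, white cells were permeabilized and stained for phospho-CREB and CD8; pCREB in CD8+ T cells measured by flow cytometry.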

[5] = biological target: human Adenosine A2a receptor (Homo sapiens (Human), UniProt P29274); test: Adenosine receptor TR-FRET binding assay (A2a); conditions: inhibition of binding of 100 nM CA200645, CHO cell membranes
Chain of human Adenosine A2a receptor (P29274 whole entry): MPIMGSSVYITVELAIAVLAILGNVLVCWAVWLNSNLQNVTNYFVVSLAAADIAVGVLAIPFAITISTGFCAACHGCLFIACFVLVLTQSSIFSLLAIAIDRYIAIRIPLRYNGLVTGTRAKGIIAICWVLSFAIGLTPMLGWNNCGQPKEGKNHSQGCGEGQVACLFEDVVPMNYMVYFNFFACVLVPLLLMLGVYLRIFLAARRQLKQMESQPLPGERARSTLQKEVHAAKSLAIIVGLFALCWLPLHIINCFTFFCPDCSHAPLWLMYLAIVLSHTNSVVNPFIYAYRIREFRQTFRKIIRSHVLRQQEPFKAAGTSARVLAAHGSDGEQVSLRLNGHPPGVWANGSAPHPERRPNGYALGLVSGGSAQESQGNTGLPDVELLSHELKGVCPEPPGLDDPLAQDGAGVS
In short: as §1

human PBMCs = test: CD3/CD28 stimulated IL-2 release NECA reversal assay in human PBMCs; format: cell-based; conditions: PBMC, 1 uM NECA, 24 hours, IL-2 in culture supernatant
In short: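 PBMCs from citrated healthy-donor blood plated at 50,000 cells/well on 1 ug/ml CD3 antibody with 1 ug/ml CD28 antibody, 1 uM NECA and 0.003-10 μM antagonist (final), 24 h at 37° C. Supernatant IL-2 measured by MSD immunoassay; % inhibition set against no-NECA control wells as 100%.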

Chain of human Adenosine A3 receptor (P0DMS8 whole entry): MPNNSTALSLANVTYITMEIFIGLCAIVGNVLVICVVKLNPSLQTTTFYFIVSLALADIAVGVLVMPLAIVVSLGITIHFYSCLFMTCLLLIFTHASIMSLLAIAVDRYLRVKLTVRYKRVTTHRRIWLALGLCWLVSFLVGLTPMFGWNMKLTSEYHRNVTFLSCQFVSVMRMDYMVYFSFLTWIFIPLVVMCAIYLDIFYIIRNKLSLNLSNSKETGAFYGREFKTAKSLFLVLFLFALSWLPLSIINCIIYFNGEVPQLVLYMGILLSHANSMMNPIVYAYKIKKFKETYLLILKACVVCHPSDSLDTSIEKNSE

| Structure (SMILES) | Ki [1] [µM] | Ki [2] [µM] | Ki [3] [µM] | IC50 [4] [µM] | Ki [5] [µM] | IC50 (human PBMCs) [µM] |
| --- | --- | --- | --- | --- | --- | --- |
| Cc1cc(-c2sc(NC(=O)N3CCC4(CCNC4=O)CC3)nc2-c2cccc(C#N)c2)cc(C)n1 [Example 6.24, N-[4-(3-Cyanophenyl)-5-(2,6-dimethyl-4-pyridyl)thiazol-2-yl]-1-oxo-2,8-diazaspiro[4.5]decane-8-carboxamide] | 0.224 | 0.0025 | 0.129 | 0.09 | 0.00099 | 0.0047 |
| Cc1cc(-c2sc(NC(=O)N3CCC4(CCNC(=O)C4)CC3)nc2-c2cccc(C#N)c2)cc(C)n1 [Example 6.26, N-[4-(3-Cyanophenyl)-5-(2,6-dimethyl-4-pyridyl)thiazol-2-yl]-10-oxo-3,9-diazaspiro[5.5]undecane-3-carboxamide] | 0.302 | 0.0038 | 0.086 | 0.08 | 0.00079 | 0.0032 |
| Cc1cc(-c2sc(NC(=O)N3CCC4(CCOCC4)C3)nc2-c2cccc(C#N)c2)cc(C)n1 [Example 6.29, N-[4-(3-Cyanophenyl)-5-(2,6-dimethyl-4-pyridyl)thiazol-2-yl]-8-oxa-2-azaspiro[4.5]decane-2-carboxamide] | 0.635 | 0.0034 | 0.228 | 0.51 | 0.00095 | 0.0053 |
| Cc1cc(-c2sc(NC(=O)N3CCC(N4CCNC4=O)CC3)nc2-c2cccc(C#N)c2)cc(C)n1 [Example 6.30, N-[4-(3-Cyanophenyl)-5-(2,6-dimethyl-4-pyridyl)thiazol-2-yl]-4-(2-oxoimidazolidin-1-yl)piperidine-1-carboxamide] | 0.187 | 0.002 | 0.097 | 0.53 | 0.00082 | 0.0069 |
| CN=S1(=O)CCN(C(=O)Nc2nc(-c3cccc(C#N)c3)c(-c3cc(C)nc(C)c3)s2)CC1 [Example 6.32, N-[4-(3-Cyanophenyl)-5-(2,6-dimethyl-4-pyridyl)thiazol-2-yl]-1-methylimino-1-oxo-1,4-thiazinane-4-carboxamide] | 0.719 | 0.0054 | 0.109 | 0.23 | 0.00083 | 0.0086 |
| Cc1cc(-c2sc(NC(=O)N3CCC4(CC3)CC(=O)N(C)C4)nc2-c2cccc(C#N)c2)cc(C)n1 [Example 6.38, N-[4-(3-Cyanophenyl)-5-(2,6-dimethyl-4-pyridyl)thiazol-2-yl]-2-methyl-3-oxo-2,8-diazaspiro[4.5]decane-8-carboxamide] | 0.278 | 0.0036 | 0.17 | 0.58 | 0.00083 | 0.006 |
| Cc1cc(-c2sc(NC(=O)N3CCC4(CCC(=O)NC4)CC3)nc2-c2cccc(C#N)c2)cc(C)n1 [Example 6.40, N-[4-(3-Cyanophenyl)-5-(2,6-dimethyl-4-pyridyl)thiazol-2-yl]-3-oxo-2,9-diazaspiro[5.5]undecane-9-carboxamide] | 0.33 | 0.0046 | 0.11 | 0.08 | 0.00041 | 0.0022 |
| Cc1cc(-c2sc(NC(=O)N3CCC(C#N)(C(C)(C)O)CC3)nc2-c2cccc(C#N)c2)cc(C)n1 [Example 6.41, 4-Cyano-N-[4-(3-cyanophenyl)-5-(2,6-dimethyl-4-pyridyl)thiazol-2-yl]-4-(1-hydroxy-1-methyl-ethyl)piperidine-1-carboxamide] | 0.235 | 0.0013 | 0.111 | 0.12 | 0.00018 | 0.0027 |
| Cc1cc(-c2sc(NC(=O)N3CCN4C(=O)NCCC4C3)nc2-c2cccc(C#N)c2)cc(C)n1 (stereo not drawn) [Example 6.42, N-[4-(3-Cyanophenyl)-5-(2,6-dimethyl-4-pyridyl)thiazol-2-yl]-6-oxo-3,4,7,8,9,9a-hexahydro-1H-pyrazino[1,2-c]pyrimidine-2-carboxamide] | 0.438 | 0.009 | 0.044 | 0.13 | 0.00039 | 0.005 |
